Data on one compound can be found in patent US7220775B2, “Compound useful for the treatment of neuropathic pain” (H. Lundbeck A/S, priority 2002, dated 2007).

Some results are limits rather than exact numbers.

Broadly, the Ki is the equilibrium dissociation constant of an inhibitor or competing ligand from its target. A lower Ki goes with a stronger hold on the target.

In assay [1] the target is T1, Human 5HT1B receptor (Homo sapiens, UniProt P28222).
T1 construct: expressed in transfected cells
T1 sequence (P28222 whole entry): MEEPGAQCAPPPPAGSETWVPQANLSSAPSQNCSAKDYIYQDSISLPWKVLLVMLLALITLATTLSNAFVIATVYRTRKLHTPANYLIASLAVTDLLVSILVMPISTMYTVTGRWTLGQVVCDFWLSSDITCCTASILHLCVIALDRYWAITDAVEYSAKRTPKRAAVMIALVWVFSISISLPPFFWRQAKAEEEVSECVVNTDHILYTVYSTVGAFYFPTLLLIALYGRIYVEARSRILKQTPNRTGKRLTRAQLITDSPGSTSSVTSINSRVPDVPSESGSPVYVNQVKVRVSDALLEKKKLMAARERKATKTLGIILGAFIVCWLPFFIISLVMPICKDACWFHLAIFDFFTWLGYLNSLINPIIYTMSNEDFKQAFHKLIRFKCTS
Put plainly: 5HT1B receptor binding ([3H]-serotonin). The settings on record: Table 8. How it is done: (§1) Human 5HT1B, 5HT1D, 5HT1E, 5HT1F, and 5HT7 Receptors: The cell lysates of LM(tk−) clonal cell line stably transfected with the genes encoding each of these 5HT receptor-subtypes were prepared as described above. Cell membranes were suspended in 50 mM Tris-HCl buffer (pH 7.4 at 37° C.) containing 10 mM MgCl2, 0.2 mM EDTA, 10 µM pargyline, and 0.1% ascorbate. […] Nonspecific binding was determined in the presence of 10 μM serotonin. The bound radioligand was separated by filtration through GF/B filters using a cell harvester.

Assay [2] concerns the target T2, Human 5HT1D receptor (Homo sapiens, UniProt P28221).
T2 construct: expressed in transfected cells
Put plainly: 5HT1D receptor binding ([3H]-serotonin). The settings on record: Table 8. How it is done:
as §1

Assay [3] has as its target T3, 5HT transporter (r5HT Uptk) (Rattus norvegicus, UniProt P31652).
T3 construct: native, tissue-derived transporters; from tissue
Put plainly: Binding at native 5HT transporter. The settings on record: Table 8. How it is done: (§2) The binding properties of the compounds of the present invention were evaluated at one or more cloned receptors or native, tissue-derived transporters, using protocols described below.
(§3) The methods to determine binding affinity at native transporters are described in the following publications: 5HT transporter and NE transporter (Owens et al., 1997), and DA transporter (Javitch et al, 1984).

The target of assay [4] is NE transporter (rNE Uptk) (Rattus norvegicus, UniProt Q9WTR4). Description: Binding at native NE transporter. The following applies: Table 7, native transporter. How it is done: as §2, §3
Assay [5] deals with NE transporter (rNE Uptk). Description: Binding at native NE transporter. Also on record: species or system rat. The following applies: Table 8. How it is done:
as §2, §3

Assay [6] has as its target T4, DA transporter (rDA Uptk) (Rattus norvegicus, UniProt P23977).
T4 construct: native, tissue-derived transporters; from tissue
Description: Binding at native DA transporter. The following applies: Table 8. How it is done:
as §2, §3

Assay [7] concerns the target T5, human α1B adrenoceptor (Homo sapiens, UniProt P35368).
T5 construct: expressed in transfected cells
Put plainly: α1B adrenergic receptor binding. The settings on record: Table 10. The source says:
(§4) Other receptors: Cell membranes expressing human dopamine D1, D2, D4 and rat D3 receptors were purchased through BioSignal, Inc. (Montreal, Canada). Binding assays using the histamine H, receptor; dopamine receptors; and α1A, α1B, and α2 adrenergic receptors may be carried out according to the procedures described in U.S. Pat. No. 5,780,485, the disclosure of which is hereby incorporated by reference in its entirety into this application. Binding assays using the dopamine D5 receptor may be carried out according to the procedures described in U.S. Pat. No. 5,882,855, the disclosure of which is hereby incorporated by reference in its entirety into this application. Binding assays for the human α1D adrenergic receptor may be carried out according to the procedures described in U.S. Pat. No. 6,156,518, the disclosure of which is hereby incorporated by reference in its entirety into this application.

In assay [8] the target is T6, human α2B adrenoceptor (Homo sapiens, UniProt P18089).
T6 construct: expressed in transfected cells
T6 sequence (P18089 whole entry): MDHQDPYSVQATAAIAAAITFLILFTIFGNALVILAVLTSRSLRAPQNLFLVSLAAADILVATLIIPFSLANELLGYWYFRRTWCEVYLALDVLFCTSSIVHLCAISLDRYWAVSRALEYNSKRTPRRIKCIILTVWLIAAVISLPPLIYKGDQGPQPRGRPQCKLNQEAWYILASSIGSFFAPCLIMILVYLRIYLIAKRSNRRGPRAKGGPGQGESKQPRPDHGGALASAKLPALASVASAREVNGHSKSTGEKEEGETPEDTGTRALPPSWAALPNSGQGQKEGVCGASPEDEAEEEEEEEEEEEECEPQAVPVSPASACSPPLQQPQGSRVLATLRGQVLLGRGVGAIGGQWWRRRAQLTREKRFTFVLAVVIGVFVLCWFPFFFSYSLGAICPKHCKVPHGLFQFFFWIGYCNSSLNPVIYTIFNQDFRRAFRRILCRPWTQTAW
Description: α2B adrenergic receptor binding. The settings on record: Table 10.
From the text: as §4

Assay [9] addresses human histamine H1 receptor (Homo sapiens, UniProt P35367). Description: Histamine H1 receptor binding. The settings on record: Table 10.
From the text: as §4

The subject of assay [10] is neuropathic rats (chronic constriction nerve injury). Description: Chronic constriction nerve injury model of neuropathic pain: mechanical allodynia (Von Frey filaments). It is filed as in vivo, rat. The settings on record: for effect on withdrawal threshold of the nerve-injured hind paw (Von Frey) vs vehicle / withdrawal threshold of the nerve-injured paw to Von Frey filament challenges: 30 mg/kg i.p.; for withdrawal threshold of the nerve-injured paw to Von Frey filament challenges: Day 12 PO. How it is done:
The aim of this study was to assess the potential analgesic effects of Example 92 following intraperitoneal administration at the doses of 3, 10 and 30 mg/kg, respectively, in an animal model of neuropathic pain. A peripheral mononeuropathy was induced in the right hind limb of rats following a chronic constriction nerve injury (Bennett and Xie, 1988), and the development of mechanical allodynia and thermal hyperalgesia was monitored using established behavioral tests (Attal, N., et al., 1990; Hargreaves, K., et al., 1988).
Male Sprague-Dawley rats within the weight range of 200-225 g, and approximate age 7-9 weeks, were allowed to acclimate for a minimum of 6 days prior to the start of the behavioral testing.
All rats underwent a chronic constriction nerve injury, and of these, those that successfully developed allodynia and hyperalgesia were allocated to treatment groups.
There were 5 separate treatment groups (with a minimum of 10 rats per group). The treatment groups were as follows: • Group C received Morphine at 10 mg/kg (n=10) • Group D received Vehicle for Example 92* at 1 ml/kg (n=10) (* 100% DMSO) • Group E received Example 92 at 30 mg/kg (n=10) • Group F received Example 92 at 3 mg/kg (n=10) • Group G received Example 92 at 10 mg/kg (n=10)
The dose volume for all treatments was 1 ml/kg. Each rat received a single i.p. dose of the test substance, reference substance or vehicle on Day 12 PO. Test substance and vehicle dosing solutions were encoded (C-G) so that the observers were unaware of the identity of the treatment groups.
The behavioral tests (Von Frey filament and Thermal Plantar Tests—see below) were performed on all rats on 3 separate days prior to […], to establish baseline values. The pre-surgery baseline values were calculated as the mean of the last 2 days testing (the data from the first day of testing were not included as this was classed as part of the acclimating period). The sequence of tests was always mechanical allodynia (Von Frey Test) followed by thermal hyperalgesia (Thermal Plantar Test), with a minimum 5 min period allowed between the 2 tests.
Each animal was placed in a wire mesh cage and a series of Von Frey filaments (ranging from filament handle number 3.61 to 6.10) applied to the plantar surface of the hind paw, from below. The filaments were applied in ascending order (starting with the weakest force) and the withdrawal threshold for both the ipsilateral and contralateral hind paws was evaluated. Each filament was indented on the plantar surface of the foot to the point where it just started to bend, and this was repeated approximately 8-10 times per filament at a frequency of approximately 1 Hz. The withdrawal threshold was defined as the lowest force of two or more consecutive Von Frey filaments to elicit a reflex withdrawal response.
The animals were surgically prepared over 5 days. Each rat was anaesthetized with sodium pentobarbitone (60 mg/ml; 0.6 ml/kg dose, intraperitonealy; batch number 00230; expiry date 22 May 3) and then supplemented as necessary with isoflurane (1-3% in oxygen). The surface around the incision site was shaved and then sterilized with surgical spirit. Under aseptic conditions the right sciatic nerve was exposed by blunt dissection at mid-thigh level and approximately 1 cm of nerve was freed of adhering connective tissue. Four chromic cat gut (4.0) ligatures, spaced at approximately 1 mm inzervals, were then tied so as to barely constrict the nerve (as viewed under 40× magnification) to induce a peripheral mononeuropathy in the right hind limb. The overlying muscle and skin were then closed in layers using suture material, and the anesthesia discontinued. On recovery from anesthesia, the rats were re-housed with their cage mates on soft padded bedding overnight (to reduce the risk of infection) and subsequently on sawdust bedding following full recovery. The animals were allowed 4 full days to recover before the behavioral testing was recommenced. […]

T5 sequence (P35368 whole entry): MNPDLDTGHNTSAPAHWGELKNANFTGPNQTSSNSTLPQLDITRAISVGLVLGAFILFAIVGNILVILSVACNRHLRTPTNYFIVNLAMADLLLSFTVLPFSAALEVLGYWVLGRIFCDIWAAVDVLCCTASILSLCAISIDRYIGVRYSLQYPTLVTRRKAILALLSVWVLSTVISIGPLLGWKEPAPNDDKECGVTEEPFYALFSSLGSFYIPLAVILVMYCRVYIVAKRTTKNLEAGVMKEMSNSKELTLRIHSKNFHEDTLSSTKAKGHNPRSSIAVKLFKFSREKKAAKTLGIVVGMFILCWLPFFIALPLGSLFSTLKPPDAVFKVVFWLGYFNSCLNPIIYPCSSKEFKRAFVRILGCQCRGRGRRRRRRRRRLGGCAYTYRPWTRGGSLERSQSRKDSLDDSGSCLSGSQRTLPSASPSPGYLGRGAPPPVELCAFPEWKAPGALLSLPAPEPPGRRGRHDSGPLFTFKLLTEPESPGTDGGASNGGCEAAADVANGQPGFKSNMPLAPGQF
T4 sequence (P23977 whole entry): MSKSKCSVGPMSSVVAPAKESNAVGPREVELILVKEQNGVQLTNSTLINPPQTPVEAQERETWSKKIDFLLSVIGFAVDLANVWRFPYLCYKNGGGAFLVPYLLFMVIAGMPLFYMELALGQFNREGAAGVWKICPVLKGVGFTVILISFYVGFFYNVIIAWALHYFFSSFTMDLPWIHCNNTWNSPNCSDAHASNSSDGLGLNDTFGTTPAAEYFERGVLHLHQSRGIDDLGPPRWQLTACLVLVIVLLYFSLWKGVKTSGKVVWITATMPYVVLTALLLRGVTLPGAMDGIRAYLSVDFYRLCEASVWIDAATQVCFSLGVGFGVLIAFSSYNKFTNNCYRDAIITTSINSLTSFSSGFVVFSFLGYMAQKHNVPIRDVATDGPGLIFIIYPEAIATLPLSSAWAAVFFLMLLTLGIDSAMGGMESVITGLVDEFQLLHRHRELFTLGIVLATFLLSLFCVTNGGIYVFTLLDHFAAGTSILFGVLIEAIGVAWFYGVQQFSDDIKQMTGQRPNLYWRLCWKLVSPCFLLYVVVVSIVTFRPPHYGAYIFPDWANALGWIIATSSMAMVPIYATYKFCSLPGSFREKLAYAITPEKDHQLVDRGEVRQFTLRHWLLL
Chain of human histamine H1 receptor (P35367 whole entry): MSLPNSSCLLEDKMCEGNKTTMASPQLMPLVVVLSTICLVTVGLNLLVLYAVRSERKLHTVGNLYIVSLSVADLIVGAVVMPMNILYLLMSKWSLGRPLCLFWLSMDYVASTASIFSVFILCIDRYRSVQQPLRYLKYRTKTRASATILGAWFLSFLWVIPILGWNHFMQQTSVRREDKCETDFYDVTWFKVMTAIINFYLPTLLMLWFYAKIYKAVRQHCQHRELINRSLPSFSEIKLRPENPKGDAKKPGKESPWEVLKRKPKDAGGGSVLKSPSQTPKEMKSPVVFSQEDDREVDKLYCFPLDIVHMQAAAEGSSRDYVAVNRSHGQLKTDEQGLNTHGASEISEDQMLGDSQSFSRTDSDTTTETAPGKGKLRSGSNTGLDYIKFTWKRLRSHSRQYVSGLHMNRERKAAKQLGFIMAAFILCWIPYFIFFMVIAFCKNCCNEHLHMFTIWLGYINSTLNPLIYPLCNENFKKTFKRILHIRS
T2 sequence (P28221 whole entry): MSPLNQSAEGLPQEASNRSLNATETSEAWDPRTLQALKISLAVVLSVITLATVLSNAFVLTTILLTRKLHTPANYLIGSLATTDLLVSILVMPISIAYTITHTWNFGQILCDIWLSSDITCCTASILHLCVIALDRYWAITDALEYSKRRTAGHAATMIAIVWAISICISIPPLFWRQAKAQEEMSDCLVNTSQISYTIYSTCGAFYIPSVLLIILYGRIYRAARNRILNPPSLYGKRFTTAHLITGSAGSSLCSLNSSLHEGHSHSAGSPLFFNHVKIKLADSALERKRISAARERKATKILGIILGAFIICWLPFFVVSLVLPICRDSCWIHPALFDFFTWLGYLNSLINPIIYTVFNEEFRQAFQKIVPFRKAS
T3 sequence (P31652 whole entry): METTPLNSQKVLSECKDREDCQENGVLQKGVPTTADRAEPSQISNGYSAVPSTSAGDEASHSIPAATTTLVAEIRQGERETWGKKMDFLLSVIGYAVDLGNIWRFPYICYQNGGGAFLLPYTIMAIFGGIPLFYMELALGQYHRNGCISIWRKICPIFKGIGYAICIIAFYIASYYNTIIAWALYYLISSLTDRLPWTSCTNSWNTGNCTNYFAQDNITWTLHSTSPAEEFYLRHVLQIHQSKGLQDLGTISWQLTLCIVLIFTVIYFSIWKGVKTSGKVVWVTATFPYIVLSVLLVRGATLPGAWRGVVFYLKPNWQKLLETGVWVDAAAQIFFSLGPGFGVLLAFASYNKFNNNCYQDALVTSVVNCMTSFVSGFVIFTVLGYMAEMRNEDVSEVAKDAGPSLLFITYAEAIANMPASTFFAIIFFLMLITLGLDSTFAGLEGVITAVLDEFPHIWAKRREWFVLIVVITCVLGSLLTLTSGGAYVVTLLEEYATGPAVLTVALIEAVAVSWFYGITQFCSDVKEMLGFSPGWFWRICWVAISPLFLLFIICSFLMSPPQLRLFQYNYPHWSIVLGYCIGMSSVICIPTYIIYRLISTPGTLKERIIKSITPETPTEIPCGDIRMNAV

As to `O=C1C(=Nc2cccc(C(F)(F)F)c2)c2ccccc2N1c1ccccc1` [Example 92, 1-PHENYL-3-[[3-(TRIFLUOROMETHYL)PHENYL]IMINO]-1,3-DIHYDRO-2H-INDOL-2-ONE], in assay [1], the “selectivity ratio h5HT1B (Ki h5HT1B / Ki hGAL3)” value is >100. The “selectivity ratio h5HT1D (Ki h5HT1D / Ki hGAL3)” value in [2] is on record as >100. The “selectivity ratio r5HT Uptk (Ki r5HT Uptk / Ki hGAL3)” value in assay [3] is listed as >100. Besides, the affinity in assay [4], expressed as Ki, was 33.9 µM. Besides, the “selectivity ratio rNE Uptk (Ki rNE Uptk / Ki hGAL3)” value in assay [5] is listed as >100. Further, the “selectivity ratio rDA Uptk (Ki rDA Uptk / Ki hGAL3)” value in assay [6] was >100. The “selectivity ratio hα1B (Ki hα1B / Ki hGAL3)” value in assay [7] is given as >100. Further, in assay [8], the “selectivity ratio hα2B (Ki hα2B / Ki hGAL3)” value is reported as >100. Moreover, the “selectivity ratio hH1 (Ki hH1 / Ki hGAL3)” value in assay [9] is reported as >100. Moreover, the “effect on withdrawal threshold of the nerve-injured hind paw (Von Frey) vs vehicle” value is recorded as “significantly increased” in assay [10] (30 min PD) and “not found to be significant” in assay [10] (90 min PD). The “withdrawal threshold of the nerve-injured paw to Von Frey filament challenges” value came out at 25.98 ± 8.25 g in assay [10] (30 min PD, vehicle 4.82±2.77 g, P≦0.05) and 11.73 ± 6.43 g in [10] (90 min PD, vehicle 2.43±1.48 g). Besides, the “responses of the uninjured (contralateral) left paw (Von Frey) vs vehicle” value in assay [10] (3, 10, 30 mg/kg i.p., any time point) is given as “No significant changes”. Besides, in assay [10] (3 or 10 mg/kg i.p., any time point), the “effect on withdrawal threshold of the nerve-injured paw (Von Frey) vs vehicle” value was “no significant effect”.
